Measurements published in patent US4159328A, “Tetrahydro-1,3,5-thiadiazin-4-one derivative” (Nihon Nohyaku Co., Ltd., priority 1977, dated 1979).

Key:
[1] = test system: larvae of brown planthopper (Nilaparvata lugens Stahl); test: Test Example 1: insecticidal activity against larvae of brown planthopper; format: in vivo; details: 120 h, third-instar larvae, 25° C., 5 days after treatment
Protocol: Insecticidal activity against larvae of brown planthopper (Nilaparvata lugens Stahl).
Testing method: Five rice seedlings of the 1.5 leaf age were dipped in a test composition of 400 ppm concentration for 30 seconds. After air-drying, the seedlings were placed in a glass tube containing 1 ml of water and infested with five third-instar larvae of brown planthopper. The glass tube was left standing in a constant temperature cabinet at 25° C. and 5 or 7 days after the treatment, dead-and-survival was observed. Mortality was calculated from the results of 3-replication test.

[2] = test system: two-spotted spider mite (Tetranychus urticae Koch); test: Test Example 3: activity to two-spotted spider mite; format: in vivo; details: 120 h, 1,000 ppm, 5 days after treatment
Description: Activity to two-spotted spider mite (Tetranychus urticae Koch).
Testing method: Two-spotted spider mites were set free on the pot-planted soybean in a greenhouse. On the next day, a test composition of 1,000 ppm concentration was sprayed over the soybean by means of a spray gun. Two days or five days after the treatment, dead-and-survival was inspected to calculate the mortality.

Structure (SMILES) | mortality at 400 ppm [1] [%] | mortality at 1000 ppm [2] [%]
CC(C)(C)N=C1SCN(c2ccccc2)C(=O)N1Cc1ccccc1 [Compound 159] | 80 | –
CC(C)N=C1SCN(c2ccccc2)C(=O)N1c1ccc(F)cc1 [Compound 167] | 70 | –
COCCN1C(=O)N(c2ccccc2)CSC1=NC(C)C [Compound 179] | 90 | –
CCOCCN1C(=O)N(c2ccccc2)CSC1=NC(C)(C)C [Compound 182] | 70 | –
COCCN1C(=O)N(c2cccc(Cl)c2)CSC1=NC(C)(C)C [Compound 229] | 100 | –
CC(C)N=C1SCN(c2cccc(Cl)c2)C(=O)N1C1CCCC1 [Compound 233] | 100 | 100
CCCCCCN1C(=O)N(c2cccc(Cl)c2)CSC1=NC(C)C [Compound 234] | 100 | –
CC(C)N=C1SCN(c2cccc(Cl)c2)C(=O)N1C(C)c1ccccc1 (stereo not drawn) [Compound 237] | 100 | 100
CCN1C(=O)N(c2ccccc2Cl)CSC1=NC(C)(C)C [Compound 241] | 100 | 70
C=CCN1C(=O)N(c2ccccc2Cl)CSC1=NC(C)C [Compound 242] | 100 | 70
C=CCN1C(=O)N(c2ccccc2Cl)CSC1=NC(C)(C)C [Compound 243] | 100 | –
CC(C)N1C(=O)N(c2ccccc2Cl)CSC1=NC1CCCCC1 [Compound 252, 2-Cyclohexylimino-3-isopropyl-5-(o-chlorophenyl)-tetrahydro-1,3,5-thiadiazin-4-one] | 100 | –
CCC(C)N=C1SCN(c2ccccc2Cl)C(=O)N1CC(C)C (stereo not drawn) [Compound 253] | 80 | –
CC(C)N=C1SCN(c2ccccc2Cl)C(=O)N1Cc1ccco1 [Compound 255] | 100 | 100
COCCCN1C(=O)N(c2ccccc2Cl)CSC1=NC(C)(C)C [Compound 258] | 100 | 100
CCN=C1SCN(c2cccc(C(F)(F)F)c2)C(=O)N1CC [Compound 260] | 60 | 100
CC(C)N=C1NC(=O)N(c2ccc(F)cc2)CS1 [Compound 275] | 100 | –
CC(C)(C)N=C1NC(=O)N(c2ccc(F)cc2)CS1 [Compound 276] | 100 | –
C=CCN=C1SCN(c2ccc(F)cc2)C(=O)N1C [Compound 289] | 100 | 100
CC(C)N=C1SCN(c2ccc(Br)cc2)C(=O)N1C(C)C [Compound 293, 2-Isopropylimino-3-isopropyl-5-(p-bromophenyl)-tetrahydro-1,3,5-thiadiazin-4-one] | 100 | 100
CC(C)N1C(=O)N(c2ccc(Br)cc2)CSC1=NC(C)(C)C [Compound 294] | 100 | 100
CCC(C)N1C(=O)N(c2ccc(Br)cc2)CSC1=NC(C)(C)C (stereo not drawn) [Compound 295] | 100 | 100
Cc1ccccc1N1CSC(=NC(C)C)N(C)C1=O [Compound 297] | 100 | 100
CCN=C1SCN(c2ccccc2C)C(=O)N1CC [Compound 298] | – | 100
CCN1C(=O)N(c2ccccc2C)CSC1=NC(C)(C)C [Compound 299] | 100 | 100

Structure (SMILES) | mortality at 400 ppm [1] [%] | mortality at 1000 ppm [2] [%]
C=CCN1C(=O)N(c2ccccc2C)CSC1=NC(C)(C)C [Compound 300] | 100 | 90
CCCCCCN1C(=O)N(c2ccccc2C)CSC1=NC(C)C [Compound 304] | 100 | 100
Cc1ccccc1N1CSC(=NC2CCCCC2)N(C(C)C)C1=O [Compound 305] | 95 | 70
CCc1ccc(N2CSC(=NC(C)C)N(C(C)C)C2=O)cc1 [Compound 332] | 100 | –
CCc1ccc(N2CSC(=NC(C)(C)C)N(C(C)CC)C2=O)cc1 (stereo not drawn) [Compound 334] | 100 | –
CCc1ccccc1N1CSC(=NC)N(C)C1=O [Compound 335] | 80 | –
C=CCN1C(=O)N(c2ccccc2CC)CSC1=NC(C)C [Compound 336] | 100 | 100
CCc1ccccc1N1CSC(=NC(C)C)N(C(C)C)C1=O [Compound 337] | 100 | 100
CCc1ccccc1N1CSC(=NC(C)(C)C)N(C(C)C)C1=O [Compound 338] | 100 | –
CCc1ccccc1N1CSC(=NC(C)(C)C)N(C(C)CC)C1=O (stereo not drawn) [Compound 339, 2-t-butylimino-3-s-butyl-5-(o-ethylphenyl)-tetrahydro-1,3,5-thiadiazin-4-one] | 100 | –
CC(C)N=C1SCN(c2ccccc2C(C)C)C(=O)N1C(C)C [Compound 342] | 100 | –
CC(C)c1ccccc1N1CSC(=NC(C)(C)C)N(C(C)C)C1=O [Compound 343, 2-t-Butylimino-3-isopropyl-5-(o-isopropyl)-phenyl-tetrahydro-1,3,5-thiadiazin-4-one] | 100 | –
CCC(C)N1C(=O)N(c2ccccc2C(C)C)CSC1=NC(C)(C)C (stereo not drawn) [Compound 344] | 100 | –
C=CCN1C(=O)N(c2ccc(OC)cc2)CSC1=NC(C)C [Compound 350] | 100 | 100
CCCN1C(=O)N(c2ccc(OC)cc2)CSC1=NC1CCCCC1 [Compound 354] | 100 | 100
COc1ccc(N2CSC(=NC(C)C)N(c3ccc(Cl)c(Cl)c3)C2=O)cc1 [Compound 359] | – | 100
COc1ccccc1N1CSC(=NC(C)(C)C)N(C(C)C)C1=O [Compound 360] | 100 | –
CCOc1ccc(N2CSC(=NC(C)(C)C)N(C(C)C)C2=O)cc1 [Compound 367] | 80 | 100
CC(C)N=C1SCN(c2ccc(OC(C)C)cc2)C(=O)N1C [Compound 370, 2-Isopropylimino-3-methyl-5-(p-isopropoxyphenyl)-tetrahydro-1,3,5-thiadiazin-4-one] | – | 100
CCN=C1SCN(c2ccc(OC(C)C)cc2)C(=O)N1CC [Compound 371] | 75 | 100
CC(C)N=C1SCN(c2ccc(OC(C)C)cc2)C(=O)N1C(C)C [Compound 372, 2-isopropylimino-3-isopropyl-5-(p-isopropoxyphenyl)-tetrahydro-1,3,5-thiadiazin-4-one] | 60 | 100
CC(C)Oc1ccc(N2CSC(=NC(C)(C)C)N(C(C)C)C2=O)cc1 [Compound 373] | 80 | 100
CCC(C)N1C(=O)N(c2ccc(OC(C)C)cc2)CSC1=NC(C)(C)C (stereo not drawn) [Compound 374, 2-t-butylimino-3-s-butyl-5-(p-isopropoxyphenyl)-tetrahydro-1,3,5-thiadiazin-4-one] | 80 | 100
CC(C)N=C1SCN(c2cc(Cl)cc(Cl)c2)C(=O)N1Cc1ccccc1 [Compound 408, 2-Isopropylimino-3-benzyl-5-(3,5-dichloro-phenyl)-tetrahydro-1,3,5-thiadiazin-4-one] | – | 100
CCN1C(=O)N(c2ccc(Cl)c(Cl)c2)CSC1=NCC(C)C [Compound 419] | – | 100
